In ChEMBL document CHEMBL3046235, “In vitro biological activities of new heterocyclic chalcone derivatives” (Med Chem Res, 2013):
Converted amounts (≈) assume the structure as drawn. The source made the active and inactive calls. The calls are words filed in the database; no cut-off is given here.

Tests used:
Bacillus subtilis [1] = assay: Antimicrobial activity against Bacillus subtilis isolated from infected patient assessed as diameter of growth inhibition zone at 40 ug/ml by disk diffusion method; format: functional; conditions: read-out: DIZ
Salmonella typhi [2] = assay: Antimicrobial activity against Salmonella enterica subsp. enterica serovar Typhi isolated from infected patient assessed as diameter of growth inhibition zone at 40 ug/ml by disk diffusion method; format: functional; conditions: read-out: DIZ
Staphylococcus aureus [3] = assay: Antimicrobial activity against Staphylococcus aureus isolated from infected patient assessed as diameter of growth inhibition zone at 40 ug/ml by disk diffusion method; format: functional; conditions: read-out: DIZ
Candida albicans [4] = assay: Antimicrobial activity against Candida albicans assessed as growth inhibition by disk diffusion method; format: functional
Candida albicans [5] = assay: Antimicrobial activity against Candida albicans assessed as diameter of growth inhibition zone at 40 ug/ml by disk diffusion method; format: functional; conditions: read-out: DIZ
Goatpox virus [6] = assay: Antiviral activity against Goatpox virus infected African green monkey Vero cells assessed as inhibition of viral replication at MNTC dose incubated for 24 hr measured after 6 days; format: functional
Camelpox virus [7] = assay: Antiviral activity against Camelpox virus infected African green monkey Vero cells assessed as inhibition of viral replication at MNTC dose incubated for 24 hr measured after 3 days; format: functional
Camelpox virus [8] = assay: Antiviral activity against Camelpox virus infected African green monkey Vero cells assessed as reduction of virus titers at MNTC dose incubated for 24 hr measured after 3 days by TCID50 assay; format: functional, organism-based
Goatpox virus [9] = assay: Antiviral activity against Goatpox virus infected African green monkey Vero cells assessed as reduction of virus titers at MNTC dose incubated for 24 hr measured after 6 days by TCID50 assay; format: functional, organism-based
Escherichia coli [10] = assay: Antimicrobial activity against Escherichia coli isolated from infected patient assessed as diameter of growth inhibition zone at 40 ug/ml by disk diffusion method; format: functional; conditions: read-out: DIZ
HepG2 [11] = assay: Cytotoxicity against Homo sapiens (human) HepG2 cells assessed as inhibition of cell viability by trypan blue exclusion method; format: functional; conditions: read-out: LC50 (the source's name)
Aspergillus niger [12] = assay: Antimicrobial activity against Aspergillus niger assessed as growth inhibition by disk diffusion method; format: functional
Buffalopox virus [13] = assay: Antiviral activity against Buffalopox virus virus infected African green monkey Vero cells assessed as reduction of virus titers at MNTC dose incubated for 24 hr measured after 4 days by TCID50 assay; format: functional, organism-based
Buffalopox virus [14] = assay: Antiviral activity against Buffalopox virus virus infected African green monkey Vero cells assessed as inhibition of viral replication at MNTC dose incubated for 24 hr measured after 4 days; format: functional
Staphylococcus aureus [15] = assay: Antimicrobial activity against Staphylococcus aureus isolated from infected patient assessed as growth inhibition by disk diffusion method; format: functional
Vero = assay: Cytotoxicity against Chlorocebus aethiops (African green monkey) Vero cells assessed as change in morphological changes after 4 days by inverted microscopic analysis; format: cell-based; conditions: chlorocebus sabaeus, 96 h
Salmonella typhi [16] = assay: Antimicrobial activity against Salmonella enterica subsp. enterica serovar Typhi isolated from infected patient assessed as growth inhibition by disk diffusion method; format: functional
Bacillus subtilis [17] = assay: Antimicrobial activity against Bacillus subtilis isolated from infected patient assessed as growth inhibition by disk diffusion method; format: functional
Aspergillus niger [18] = assay: Antimicrobial activity against Aspergillus niger assessed as diameter of growth inhibition zone at 40 ug/ml by disk diffusion method; format: functional; conditions: read-out: DIZ
Escherichia coli [19] = assay: Antimicrobial activity against Escherichia coli isolated from infected patient assessed as growth inhibition by disk diffusion method; format: functional
[20] = system: Radical scavenging activity; assay: Antioxidant activity assessed as DPPH radical scavenging activity at 15 ug/ml after 30 min by spectrophotometric analysis; format: functional
HepG2 [21] = assay: Growth inhibition of Homo sapiens (human) HepG2 cells at 25 to 100 ug/ml after 48 hr by MTT assay; format: functional, cell-based
HepG2 [22] = assay: Growth inhibition of Homo sapiens (human) HepG2 cells at 100 ug/ml after 48 hr by MTT assay; format: functional; conditions: HepG2, 48 h, read-out: GI
HepG2 [23] = assay: Growth inhibition of Homo sapiens (human) HepG2 cells up to 75 ug/ml after 48 hr by MTT assay; format: functional, cell-based

Structure (SMILES)	zone of inhibition at 40 µg/mL (Bacillus subtilis [1]) [mm]	zone of inhibition at 40 µg/mL (Salmonella typhi [2]) [mm]	zone of inhibition at 40 µg/mL (Staphylococcus aureus [3]) [mm]	MIC (Candida albicans [4]) [mg/L]	zone of inhibition at 40 µg/mL (Candida albicans [5]) [mm]	inhibition (INH) (Goatpox virus [6]) [%]	inhibition (INH) (Camelpox virus [7]) [%]	inhibition (Camelpox virus [8])	inhibition (Goatpox virus [9])	zone of inhibition at 40 µg/mL (Escherichia coli [10]) [mm]	CC50 (HepG2 [11]) [mg/L]	MIC (Aspergillus niger [12]) [mg/L]	inhibition (Buffalopox virus [13])	inhibition (INH) (Buffalopox virus [14]) [%]	MIC (Staphylococcus aureus [15]) [mg/L]	MNTD (Vero) [µg]	MIC (Salmonella typhi [16]) [mg/L]	MIC (Bacillus subtilis [17]) [mg/L]	zone of inhibition at 40 µg/mL (Aspergillus niger [18]) [mm]	MIC (Escherichia coli [19]) [mg/L]	other results
O=C(O)c1cn(C2CC2)c2cc(N3CCNCC3)c(F)cc2c1=O [CIPROFLOXACIN]	23	23	24	–	–	–	–	–	–	–	–	–	–	–	–	–	–	–	–	–	–
CCc1ccc(/C=C/C(=O)c2cc(C)oc2C)o1	24	23	18	40 (≈ 164 µM)	21	0	0	inactive	inactive	27	69 (≈ 282 µM)	40 (≈ 164 µM)	inactive	0	40 (≈ 164 µM)	2.08	40 (≈ 164 µM)	30 (≈ 123 µM)	22	40 (≈ 164 µM)	Activity [20]: 31%
COc1ccc(/C=C/C(=O)c2cc(C)oc2C)cc1	23	24	21	30 (≈ 117 µM)	18	0	0	inactive	inactive	21	63 (≈ 246 µM)	30 (≈ 117 µM)	inactive	0	40 (≈ 156 µM)	1.3	20 (≈ 78 µM)	40 (≈ 156 µM)	18	30 (≈ 117 µM)	Activity [20]: 64.9%
O=C(/C=C/c1c[nH]c2ccccc12)c1ccsc1	16	19	19	30 (≈ 118 µM)	28	0	0	inactive	inactive	20	36 (≈ 142 µM)	30 (≈ 118 µM)	inactive	0	30 (≈ 118 µM)	1.3	30 (≈ 118 µM)	40 (≈ 158 µM)	24	30 (≈ 118 µM)	Activity [20]: 31%
Cc1cc(C(=O)/C=C/c2c[nH]c3ccccc23)c(C)o1	22	22	22	40 (≈ 151 µM)	19	0	0	inactive	inactive	21	81 (≈ 305 µM)	40 (≈ 151 µM)	inactive	0	20 (≈ 75.4 µM)	75	30 (≈ 113 µM)	40 (≈ 151 µM)	11	40 (≈ 151 µM)	Activity [20]: 31%
COc1ccc(/C=C/C(=O)c2ccsc2)cc1	24	24	25	30 (≈ 123 µM)	25	0	0	inactive	inactive	26	12 (≈ 49.1 µM)	30 (≈ 123 µM)	inactive	0	20 (≈ 81.9 µM)	6.24	40 (≈ 164 µM)	30 (≈ 123 µM)	23	20 (≈ 81.9 µM)	growth inhibition (GI) (HepG2 [21]): Active; Activity [20]: 31%
CCc1ccc(/C=C/C(=O)c2ccsc2)o1	25	26	23	20 (≈ 86.1 µM)	25	0	0	inactive	inactive	25	8 (≈ 34.4 µM)	40 (≈ 172 µM)	inactive	0	20 (≈ 86.1 µM)	58.3	20 (≈ 86.1 µM)	20 (≈ 86.1 µM)	23	30 (≈ 129 µM)	growth inhibition (GI) (HepG2 [21]): Active; Activity [20]: 31%
O=C(/C=C/c1ccc[nH]1)c1ccsc1	23	23	16	40 (≈ 197 µM)	23	0	0	inactive	inactive	24	21 (≈ 103 µM)	30 (≈ 148 µM)	inactive	0	40 (≈ 197 µM)	4.68	40 (≈ 197 µM)	30 (≈ 148 µM)	23	40 (≈ 197 µM)	Activity [20]: 31%
Cc1cc(C(=O)/C=C/c2ccc(-c3ccccc3)cc2)c(C)o1	24	22	16	20 (≈ 66.1 µM)	23	0	0	inactive	inactive	23	92 (≈ 304 µM)	20 (≈ 66.1 µM)	inactive	0	20 (≈ 66.1 µM)	4.68	30 (≈ 99.2 µM)	30 (≈ 99.2 µM)	23	20 (≈ 66.1 µM)	inhibition of growth at 100 µg/mL (HepG2 [22]): 67%; growth inhibition (GI) (HepG2 [23]): Active; Activity [20]: 31%
O=C(/C=C/c1ccc(-c2ccccc2)cc1)c1ccsc1	18	15	17	30 (≈ 103 µM)	30	0	0	inactive	inactive	22	13 (≈ 44.8 µM)	40 (≈ 138 µM)	inactive	0	30 (≈ 103 µM)	7.8	30 (≈ 103 µM)	30 (≈ 103 µM)	24	30 (≈ 103 µM)	growth inhibition (GI) (HepG2 [21]): Active; Activity [20]: 31%
OC(Cn1cncn1)(Cn1cncn1)c1ccc(F)cc1F [FLUCONAZOLE]	–	–	–	–	24	–	–	–	–	–	–	–	–	–	–	–	–	–	25	–	–
Cc1cc(C(=O)/C=C/c2ccc[nH]2)c(C)o1	21	19	21	30 (≈ 139 µM)	17	0	0	inactive	inactive	18	59 (≈ 274 µM)	40 (≈ 186 µM)	inactive	0	30 (≈ 139 µM)	25	40 (≈ 186 µM)	30 (≈ 139 µM)	21	40 (≈ 186 µM)	Activity [20]: 31%
